Measurements as given in US20250268980A1, “AN ANTICANCER THERAPY TARGETING RAS AND OTHER ONCOGENIC SIGNALS BY INHIBITION OF DYNAMIC BLEBBING AND/OR SEPTINS” (THE BOARD OF REGENTS OF THE UNIVERSITY OF TEXAS SYSTEM, priority 2022, published 2025).

Columns and labels:
NRAS = assay: NRAS-GFP enrichment at the cortex of MV3 cells; assay type: cell-based, human; settings: voxels within 0.96 μm of surface
Description: 3D Cell Image Analysis. Cell morphology and septin localization were analyzed principally via u-shape3D similar to the protocol described in Driscoll et al. Nature Methods. 16, 1037-1044 (2019), the disclosure of which is incorporated herein in its entirety. Briefly, 3D images were first deconvolved using either a Richardson-Lucy or Wiener algorithm with an experimentally measured point spread function. Cells were next segmented from the image background using u-shape3D's ‘twoLevel’ mode, which combines a straightforward Otsu threshold of the image to detect the outer cell surface with a blurred version of the image to segment the inside of the cell. The volume segmented from the blurred image was morphologically eroded to ensure the fidelity of the overall segmentation. Cell surfaces were then represented as triangle meshes, and the mean surface curvature at every triangle was calculated according to methods described in Driscoll et al. Nature Methods. 16, 1037-1044 (2019) and Elliott et al., Nat. […] Septin and NRAS localization was measured from fluorescence images by extending a sphere of either 1 μm (for septins) or 2 μm (for NRAS) about each mesh triangle and mapping to the triangle the average intensity both within that sphere and the cell. Image intensity was not depth normalized prior to analysis, but was instead measured from the raw, undeconvolved image. […]

[1] = tested on: septin structures in MV3 melanoma xenografts; assay: Septin foci at invasive front of MV3 SEPT6-GFP xenograft tumors (ctASLM); assay type: in vivo, NOD SCID mice; settings: mice with MV3 SEPT6-GFP tumors, FCF via oral gavage
Text: NOD SCID mice were flank-injected with SEPT6-GFP-expressing MV3 melanoma cells to form xenograft tumors. Once tumors were palpable at injection sites they were dissected out with surrounding stroma, fixed, cleared, and imaged via cleared tissue axially-scanned lightsheet microscopy (ctASLM) to observe and quantify bleb formation and septin structure formation. As shown in FIG. 18A and FIG. 18B these in vivo experiments recapitulated in vitro results described previously, showing blebby morphologies with associated punctate septin structures (FIG. 18A). Importantly, this phenotype was exclusively observed at the invasive front of tumors, where cells lose contact to surrounding tissue, and not in the densely packed tumor core (FIG. 18B). These findings agree with previous research showing that blebby amoeboid-like cells are enriched at tumor invasive fronts. […] Furthermore, they support the idea that such bleb-associated septin signaling hubs are relevant in disease progression in human patients.
Specifically, FIG. 20A and FIG. 20B depict graphs illustrating the feasibility of anti-septin therapy in vivo. In triplicate experiments, mice growing tumors formed with SEPT6-GFP expressing MV3 melanoma cells (using the methods described in Example 8 above) were treated with FCF via oral gavage and septin structures were analyzed. […]

`O=C(Nc1ccccc1)Nc1ccnc(Cl)c1` [FCF, forchlorfenuron] was tested, and the “enrichment of NRAS near the cell surface” value (NRAS) was “significantly reduced enrichment of NRAS near the cell surface”, the “intensity of septin foci at the invasive front” value [1] was “dimmer” and the “number of septin foci at the invasive front” value [1] was “significantly fewer”.
